# Patent publication US8088761B2, “Enzyme inhibitors” (Cancer Research Technology Limited, priority 2005, dated 2012)
# Tests used:
# [1] = tested on: HCT116 cells; test: Cell viability assay (MTT) in HCT116 cell line; type: cell-based; conditions: Homo sapiens, HCT-116, 72 hrs, IC50 range, read-out: HCT116 cell growth inhibition
# Outline: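 MTT read-out (4 hrs, 37 °C, DMSO extraction) following 72 hrs of treatment with 0-50 μM Aurora inhibitor. HCT116 cells were plated a day earlier and tested in triplicate; IC50 derived from the curve.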
# [2] = target: T1, Aurora-A (Homo sapiens, UniProt O14965); test: Flashplate Aurora A enzyme inhibition assay; type: biochemical; conditions: Flashplate assay; IC50 range; read-out: Aurora-A inhibition
# T1 sequence (O14965 1-403): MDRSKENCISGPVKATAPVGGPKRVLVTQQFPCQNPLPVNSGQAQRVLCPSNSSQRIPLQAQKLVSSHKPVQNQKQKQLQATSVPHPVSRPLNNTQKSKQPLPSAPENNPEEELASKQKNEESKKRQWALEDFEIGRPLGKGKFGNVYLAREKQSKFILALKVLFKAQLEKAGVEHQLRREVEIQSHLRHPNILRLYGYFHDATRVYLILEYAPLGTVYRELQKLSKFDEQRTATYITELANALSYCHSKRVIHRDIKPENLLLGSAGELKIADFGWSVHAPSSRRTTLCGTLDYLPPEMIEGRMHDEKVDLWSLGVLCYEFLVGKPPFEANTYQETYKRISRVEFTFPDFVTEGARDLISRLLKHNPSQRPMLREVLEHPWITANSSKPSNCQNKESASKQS
# Outline: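 This is a radiometric Flashplate format: plates were precoated with DTT, and compound (in 2% DMSO) was mixed with kinase buffer (pH 7.5 Tris, MgCl2, NaCl) containing 1 mM MBP, 20 μM ATP and ^33P-ATP. The reaction was started with 250 ng Aurora-A per well and incubated 2 h at RT. It was then stopped by 10 mM sodium pyrophosphate washing, and plates were scintillation-counted.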
SMILES,IC50 [1],IC50 [2]
"CN(C)CCOc1ccc(-c2nc3c(N4CCN(Cc5cccnc5)CC4)c(Br)cnc3[nH]2)cc1 [Example 111, 2-(4-(6-Bromo-7-(4-(pyridin-3-ylmethyl)piperazin-1-yl)-3H-imidazo[4,5-b]pyridin-2-yl)phenoxy)-N,N-dimethylethanamine]",< 500 nM,< 500 nM
"CC(C)(C)OC(=O)N1CCN(c2ccc(-c3nc4c(N5CCN(Cc6cccnc6)CC5)c(Cl)cnc4[nH]3)cc2)CC1 [Example 136, tert-Butyl 4-(4-(6-chloro-7-(4-(pyridin-3-ylmethyl)piperazin-1-yl)-3H-imidazo[4,5-b]pyridin-2-yl)phenyl)piperazine-1-carboxylate]",2000 to 50000 nM,500 to 2000 nM
"COc1cccc(-c2nc3c(N4CCN(Cc5cc(C)on5)CC4)c(Br)cnc3[nH]2)c1 [Example 81, 6-Bromo-2-(3-methoxy-phenyl)-7-[4-(5-methyl-isoxazol-3-ylmethyl)-piperazin-1-yl]-3H-imidazo[4,5-b]pyridine]",500 to 2000 nM,< 500 nM
"O=C(CN1CCN(c2c(Cl)cnc3[nH]c(-c4cccc(OCCN5CCOCC5)c4)nc23)CC1)Nc1nccs1 [Example 185, 2-(4-(6-Chloro-2-(3-(2-morpholinoethoxy)phenyl)-3H-imidazo[4,5-b]pyridin-7-yl)piperazin-1-yl)-N-(thiazol-2-yl)acetamide]",< 500 nM,< 500 nM
"Cc1nc(CN2CCN(c3c(Br)cnc4[nH]c(-c5ccc(-n6cccn6)cc5)nc34)CC2)cs1 [Example 161, 4-((4-(2-(4-(1H-Pyrazol-1-yl)phenyl)-6-bromo-3H-imidazo[4,5-b]pyridin-7-yl)piperazin-1-yl)methyl)-2-methylthiazole]",2000 to 50000 nM,< 500 nM
"CN(C)c1ccc(-c2nc3c(N4CCN(Cc5ccc(Cl)cc5)CC4)c(Br)cnc3[nH]2)cc1 [Example 26, 4-(6-Bromo-7-(4-(4-chlorobenzyl)piperazin-1-yl)-3H-imidazo[4,5-b]pyridin-2-yl)-N,N-dimethylaniline]",< 500 nM,< 500 nM
"CN1CCN(Cc2cccc(-c3nc4c(N5CCN(Cc6cccnc6)CC5)c(Br)cnc4[nH]3)c2)CC1 [Example 58, 6-Bromo-2-(3-((4-methylpiperazin-1-yl)methyl)phenyl)-7-(4-(pyridin-3-ylmethyl)piperazin-1-yl)-3H-imidazo[4,5-b]pyridine]",500 to 2000 nM,< 500 nM
"COc1ccc(-c2nc3c(N4CCN(Cc5ccc(OC)nc5)CC4)c(Br)cnc3[nH]2)cc1 [Example 116, 6-Bromo-2-(4-methoxyphenyl)-7-(4-((6-methoxypyridin-3-yl)methyl)piperazin-1-yl)-3H-imidazo[4,5-b]pyridine]",500 to 2000 nM,< 500 nM
"Brc1cnc2[nH]c(-c3ccc(CN4CCOCC4)cc3)nc2c1N1CCN(Cc2cncs2)CC1 [Example 171, 4-(4-(6-Bromo-7-(4-(thiazol-5-ylmethyl)piperazin-1-yl)-3H-imidazo[4,5-b]pyridin-2-yl)benzyl)morpholine]",500 to 2000 nM,< 500 nM
"COc1ccc(-c2nc3c(N4CCN(CC5CC5)CC4)c(Br)cnc3[nH]2)cc1 [Example 73, 6-Bromo-7-(4-cyclopropylmethyl-piperazin-1-yl)-2-(4-methoxy-phenyl)-3H-imidazo[4,5-b]pyridine]",500 to 2000 nM,500 to 2000 nM
"NCc1ccc(-c2nc3c(N4CCN(Cc5cccnc5)CC4)c(Br)cnc3[nH]2)cc1 [Example 60, (4-(6-Bromo-7-(4-(pyridin-3-ylmethyl)piperazin-1-yl)-3H-imidazo[4,5-b]pyridin-2-yl)phenyl)methanamine]",500 to 2000 nM,< 500 nM
"Clc1cnc2[nH]c(-c3ccc(N4CCNCC4)cc3)nc2c1N1CCN(Cc2cccnc2)CC1 [Example 137, 6-Chloro-2-(4-(piperazin-1-yl)phenyl)-7-(4-(pyridin-3-ylmethyl)piperazin-1-yl)-3H-imidazo[4,5-b]pyridine]",500 to 2000 nM,< 500 nM
"CN(C)c1ccc(-c2nc3c(N4CCN(C(=O)Nc5nccs5)CC4)c(Br)cnc3[nH]2)cc1 [Example 42, 4-(6-Bromo-2-(4-(dimethylamino)phenyl)-3H-imidazo[4,5-b]pyridin-7-yl)-N-(thiazol-2-yl)piperazine-1-carboxamide]",2000 to 50000 nM,< 500 nM
"Brc1cnc2[nH]c(-c3ccc(CN4CCOCC4)cc3)nc2c1N1CCN(Cc2cscn2)CC1 [Example 160, 4-(4-(6-Bromo-7-(4-(thiazol-4-ylmethyl)piperazin-1-yl)-3H-imidazo[4,5-b]pyridin-2-yl)benzyl)morpholine]",< 500 nM,< 500 nM
"CN(C)c1ccc(-c2nc3c(N4CCN(C(=O)COc5ccccc5)CC4)c(Br)cnc3[nH]2)cc1 [Example 38, 1-(4-(6-Bromo-2-(4-(dimethylamino)phenyl)-3H-imidazo[4,5-b]pyridin-7-yl)piperazin-1-yl)-2-phenoxyethanone]",500 to 2000 nM,< 500 nM
"COc1ccc(-c2nc3c(N4CCN(CC(=O)Nc5nccs5)CC4)c(Cl)cnc3[nH]2)cc1 [Example 19, 2-(4-(6-Chloro-2-(4-methoxyphenyl)-3H-imidazo[4,5-b]pyridin-7-yl)piperazin-1-yl)-N-(thiazol-2-yl)acetamide]",500 to 2000 nM,< 500 nM
"Clc1ccc(CN2CCN(c3c(Br)cnc4[nH]c(-c5ccc(CN6CCOCC6)cc5)nc34)CC2)cc1 [Example 69, 6-Bromo-7-[4-(4-chloro-benzyl)-piperazin-1-yl]-2-(4-morpholin-4-ylmethyl-phenyl)-3H-imidazo[4,5-b]pyridine]",500 to 2000 nM,< 500 nM
"CCN1CCN(c2c(Cl)cnc3[nH]c(-c4ccc(Cn5cccn5)cc4)nc23)CC1 [Example 143, 2-(4-((1H-pyrazol-1-yl)methyl)phenyl)-6-chloro-7-(4-ethylpiperazin-1-yl)-3H-imidazo[4,5-b]pyridine]",< 500 nM,< 500 nM
"NCc1ccc(-c2nc3c(N4CCN(CC(=O)Nc5nccs5)CC4)c(Br)cnc3[nH]2)cc1 [Example 7, 2-{4-[2-(4-Aminomethyl-phenyl)-6-bromo-3H-imidazo[4,5-b]pyridin-7-yl]-piperazin-1-yl}-N-thiazol-2-yl-acetamide]",500 to 2000 nM,< 500 nM
"CN(C)c1ccc(-c2nc3c(N4CCN(CC(=O)Nc5nccs5)CC4)c(C#N)cnc3[nH]2)cc1 [Example 62, 2-(4-(6-Cyano-2-(4-(dimethylamino)phenyl)-3H-imidazo[4,5-b]pyridin-7-yl)piperazin-1-yl)-N-(thiazol-2-yl)acetamide]",500 to 2000 nM,< 500 nM
"CC(c1ccccn1)N1CCN(c2c(Br)cnc3[nH]c(-c4ccc(N(C)C)cc4)nc23)CC1 (centres unmarked) [Example 50, 4-(6-Bromo-7-(4-(1-(pyridin-2-yl)ethyl)piperazin-1-yl)-3H-imidazo[4,5-b]pyridin-2-yl)-N,N-dimethylaniline]",500 to 2000 nM,< 500 nM
"Cc1nc(CN2CCN(c3c(Cl)cnc4[nH]c(-c5ccc(Cn6cccn6)cc5)nc34)CC2)cs1 [Example 173, 4-((4-(2-(4-((1H-Pyrazol-1-yl)methyl)phenyl)-6-chloro-3H-imidazo[4,5-b]pyridin-7-yl)piperazin-1-yl)methyl)-2-methylthiazole]",< 500 nM,< 500 nM
"O=C(CN1CCN(c2c(Cl)cnc3[nH]c(-c4ccccc4)nc23)CC1)Nc1nccs1 [Example 4, 2-[4-(6-Chloro-2-phenyl-3H-imidazo[4,5-b]pyridin-7-yl)-piperazin-1-yl]-N-thiazol-2-yl-acetamide]",500 to 2000 nM,< 500 nM
"Brc1cnc2[nH]c(-c3ccc(CN4CCNCC4)cc3)nc2c1N1CCN(Cc2cscn2)CC1 [Example 179, 4-((4-(6-Bromo-2-(4-(piperazin-1-ylmethyl)phenyl)-3H-imidazo[4,5-b]pyridin-7-yl)piperazin-1-yl)methyl)thiazole]",500 to 2000 nM,< 500 nM
"O=C(CN1CCN(c2c(Br)cnc3[nH]cnc23)CC1)Nc1nccs1 [Example 10, 2-[4-(6-Bromo-3H-imidazo[4,5-b]pyridin-7-yl)-piperazin-1-yl]-N-thiazol-2-yl-acetamide]",2000 to 50000 nM,500 to 2000 nM
"COc1ccc(-c2nc3c(N4CCN(Cc5nccn5C)CC4)c(Br)cnc3[nH]2)cc1 [Example 167, 6-Bromo-2-(4-methoxyphenyl)-7-(4-((1-methyl-1H-imidazol-2-yl)methyl)piperazin-1-yl)-3H-imidazo[4,5-b]pyridine]",500 to 2000 nM,< 500 nM
"CN(C)c1ccc(-c2nc3c(N4CCN(CC(=O)Nc5ccccc5)CC4)c(Cl)cnc3[nH]2)cc1 [Example 22, 2-(4-(6-Chloro-2-(4-(dimethylamino)phenyl)-3H-imidazo[4,5-b]pyridin-7-yl)piperazin-1-yl)-N-phenylacetamide]",2000 to 50000 nM,< 500 nM
"Cc1cc(CN2CCN(c3c(Cl)cnc4[nH]c(-c5ccc(CN6CCOCC6)cc5)nc34)CC2)no1 [Example 80, 6-Chloro-7-[4-(5-methyl-isoxazol-3-ylmethyl)-piperazin-1-yl]-2-(4-morpholin-4-ylmethyl-phenyl)-3H-imidazo[4,5-b]pyridine]",500 to 2000 nM,< 500 nM
